From patent US5959109A, “Compounds and methods for increasing endogenous levels of corticotropin-releasing factor” (Neurocrine Biosciences, Inc., priority 1996, dated 1999)

System: not given
Assay: not given
Conditions: human, in vivo; cited from earlier work

Molecule | memory improvement in Alzheimer's patients | side effects
Nc1c2c(nc3ccccc13)CCCC2 [Tacrine] | only marginal memory improvement | elevating liver enzymes
CNCCC(Oc1ccc(C(F)(F)F)cc1)c1ccccc1 (stereo not drawn) [fluoxetine] |  | suicidality
CC(NC(C)(C)C)C(=O)c1cccc(Cl)c1 (stereo not drawn) [bupropion] |  | convulsions

System: human CRF-BP
Assay: not given
Conditions: cited from earlier work

Molecule | affinity for CRF-BP
sauvagine | bind CRF-BP with high affinity
oCRF: the standard oCRF, which is arbitrarily considered as 1.0 | low affinity

Biological target: T1, human recombinant CRF-BP (Homo sapiens, UniProt P24387)
T1 construct: made in house
T1 sequence (P24387 25-322): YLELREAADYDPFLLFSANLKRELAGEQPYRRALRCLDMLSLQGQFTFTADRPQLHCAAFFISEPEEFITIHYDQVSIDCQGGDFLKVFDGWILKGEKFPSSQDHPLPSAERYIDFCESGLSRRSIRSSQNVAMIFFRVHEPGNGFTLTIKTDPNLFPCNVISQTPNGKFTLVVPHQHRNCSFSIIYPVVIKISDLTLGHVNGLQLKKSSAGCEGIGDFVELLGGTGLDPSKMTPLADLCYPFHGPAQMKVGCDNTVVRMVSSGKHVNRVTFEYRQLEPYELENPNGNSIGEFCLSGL
Assay: LIRMA: displacement of 125I-h/rCRF from CRF-BP, Ki
Format: binding
Conditions: inhibitory binding affinity constant (Ki)
Experimental: In LIRMA CRF-BP isolated from brain tissue, serum, or cells expressing a recombinant form, is added to wells of a 96-well plate, to small polypropylene microfuge tubes, or to glass borosilicate tubes in a binding buffer (0.02% NP-40 in 50 mM phosphate-buffered saline). ^125 I-h/rCRF (New England Nuclear) and the candidate ligand inhibitor at 10 μM are added and the reaction is incubated for 1 hour at room temperature. An appropriately diluted anti-CRF-BP antibody, such as a rabbit anti-hCRF-BP (Potter et al., Proc. Natl. Acad. Sci. USA 89:4192-4196, 1992) is added to each tube, and after further incubation, bound complexes are precipitated by the further addition of a goat anti-rabbit antibody. The precipitate containing ^125 I-CRF is collected by centrifugation and the amount of radioactivity in the pellet is determined by a gamma counter. If the candidate ligand inhibitor displaces CRF from CRF-BP, the pellets will contain less radioactivity in comparison to controls in which no candidate peptide is added. Maximum inhibition (i.e., 100%) of the binding of ^125 I-h/rCRF to the CRF-BP is defined by the amount of radioactivity left in the pellets after incubation with 10 μM of the CRF-BP peptide ligand h/rCRF (6-33). Thus, the binding potency of the candidate ligand inhibitor will be measured relative to the potency of the standard h/rCRF (6-33).
Thus, a ligand having a Ki of less than that of hCRF will bind more strongly to hCRF-BP than will hCRF itself, and a ligand having a higher value will have a relatively lower binding affinity.
The assay is performed in 600 μl polypropylene microfuge tubes or a 96-well plate. First, 50 μl of a 250 ng/ml of purified recombinant CRF-BP is added to 150 μl of PBS binding buffer (50 mM sodium phosphate, 0.15M NaCl, and 0.02% NP-40). Next, ^125 I-h/r CRF at a final concentration of 200 pM and 50 μl of a 10-100 μM concentration of the ligand inhibitor are added and incubated for 1 hour at room temperature. To the reaction, 50 μl of anti-CRF-BP antibody, 5144, diluted 1:1000 with assay buffer is added to each tube and allowed to bind for a further 1 hour at room temperature. The total volume in all tubes is adjusted to 300 μl with assay buffer. Bound complexes are precipitated by the addition of 200 μl of preprecipitated goat anti-rabbit (GAR) second antibody at 1:20 in 1% normal rabbit serum, 4% PEG, 50 mM sodium phosphate, 0.1% sodium azide, followed by incubation for 1 hour at room temperature. The antibody-bound ^125 I-CRF precipitate is then collected by centrifugation (3000×g) at 4° C. for 20 minutes in a Beckman GS-15R centrifuge. Using a Beckman Biomer 1000 robotic workstation, the tubes are aspirated and washed once with 600 μl of PBS plus 0.02% NP-40. Tubes containing the pellets are then transferred to 12×74 mm counting tubes and counted in a gamma counter.
Inhibitory binding affinity constant (Ki) values are determined using the method of Munson et al., Anal. Biochem. 107:220, 1980.

Molecule | Ki
CCn1c(=O)c(C=Nc2nc3cc(C)c(C)cc3[nH]2)c(O)n(CCc2ccccc2)c1=S [Compound 85-1] | < 50 nM
CCCn1c(O)c(C=Nc2nc3c(s2)CCC3)c(=O)n(CCC)c1=S [Compound 172] | < 50 nM
O=c1c(C=Nc2nnc(C(F)(F)F)s2)c(O)n(Cc2ccccc2)c(=S)n1Cc1ccccc1 [Compound 105] | < 100 nM
CCn1c(O)c(C=Nc2nc3cc([N+](=O)[O-])ccc3s2)c(=O)n(CC)c1=S [Compound 82] | < 50 nM
Cc1cnc(N=Cc2c(O)n(Cc3cccs3)c(=S)n(Cc3cccs3)c2=O)s1 [Compound 157] | < 50 nM
CCn1c(=O)c(C=Nc2nc3ccc(OC)cc3s2)c(O)n(CCc2ccccc2)c1=S [Compound 76-1] | < 100 nM
CCn1c(O)c(C=Nc2nc3c(C)cccc3s2)c(=O)n(CC)c1=S [Compound 72] | < 100 nM
CCn1c(O)c(C=Nc2nc3ccc(OC)cc3s2)c(=O)n(CC)c1=S [Compound 76] | < 50 nM
O=c1c(C=Nc2nc(N(Cc3ccccc3)c3ccccc3)ns2)c(O)n(Cc2ccccc2)c(=S)n1Cc1ccccc1 [Compound 132] | < 50 nM
CCn1c(O)c(C=Nc2nc3c(OC)cccc3s2)c(=O)n(CC)c1=S [Compound 73] | < 50 nM
CCCn1c(O)c(C=NC(=S)Nc2ccc(Cl)cc2)c(=O)n(CCC)c1=S [Compound 54] | < 100 nM
CCn1c(O)c(C=Nc2nc3cc(C)c(C)cc3[nH]2)c(=O)n(CC)c1=S [Compound 85] | < 50 nM
O=c1c(C=Nc2ncc(Br)s2)c(O)n(Cc2ccccc2)c(=S)n1Cc1ccccc1 [Compound 140] | < 100 nM
CCSc1nnc(N=Cc2c(O)n(Cc3ccccc3)c(=S)n(Cc3ccccc3)c2=O)s1 [Compound 115] | < 100 nM
CCCn1c(O)c(C=Nc2nnc(CC)s2)c(=O)n(CCC)c1=S [Compound 150] | < 100 nM
O=c1c(C=Nc2nc3ccccc3[nH]2)c(O)n(CCc2cccs2)c(=S)n1CCc1cccs1 [Compound 97] | < 50 nM
CCCCCCCCCCCCCCCCSc1nnc(N=Cc2c(O)n(Cc3ccccc3)c(=S)n(Cc3ccccc3)c2=O)s1 [Compound 121] | < 50 nM
CCn1c(=O)c(C=Nc2nc3c(Cl)cccc3s2)c(O)n(CCc2ccccc2)c1=S [Compound 95-1] | < 100 nM
CCn1c(=O)c(C=Nc2nnc(C(F)(F)F)s2)c(O)n(CCc2ccccc2)c1=S [Compound 104-1] | < 100 nM
CCn1c(=O)c(C=Nc2nc3ccc(C)cc3s2)c(O)n(CCc2ccccc2)c1=S [Compound 75-1] | < 100 nM

Molecule | Ki
CCn1c(O)c(C=Nc2nc3cc(C)ccc3[nH]2)c(=O)n(CC)c1=S [Compound 86] | < 50 nM
CCn1c(=O)c(C=Nc2nc3c(OC)cccc3s2)c(O)n(CCc2ccccc2)c1=S [Compound 73-1] | < 100 nM
CCCn1c(O)c(C=Nc2nc(N(Cc3ccccc3)c3ccccc3)ns2)c(=O)n(CCC)c1=S [Compound 133] | < 50 nM
CCn1c(=O)c(C=Nc2nncs2)c(O)n(CCc2ccccc2)c1=S [Compound 110-1] | < 50 nM
CCCn1c(O)c(C=Nc2nnc(C)s2)c(=O)n(CCC)c1=S [Compound 103] | < 100 nM
CCn1c(O)c(C=NC(=S)Nc2c(Cl)cc(Cl)cc2Cl)c(=O)n(CC)c1=S [Compound 49] | < 100 nM
CCCn1c(O)c(C=Nc2nnc(SCC)s2)c(=O)n(CCC)c1=S [Compound 116] | < 100 nM
CCCn1c(O)c(C=Nc2nnc(C(F)(F)F)s2)c(=O)n(CCC)c1=S [Compound 106] | < 100 nM
O=c1c(C=Nc2nncs2)c(O)n(Cc2ccccc2)c(=S)n1Cc1ccccc1 [Compound 111] | < 50 nM
O=c1c(C=NC(=S)Nc2ccc(Cl)cc2)c(O)n(Cc2ccccc2)c(=S)n1Cc1ccccc1 [Compound 53] | < 100 nM
CCn1c(=O)c(C=Nc2ncc(C)s2)c(O)n(CCc2ccccc2)c1=S [Compound 117-1] | < 100 nM
CCn1c(O)c(C=Nc2nc3c(C(F)(F)F)cccc3s2)c(=O)n(CC)c1=S [Compound 80] | < 100 nM
CCn1c(=O)c(C=Nc2nc(N(Cc3ccccc3)c3ccccc3)ns2)c(O)n(CCc2ccccc2)c1=S [Compound 131-1] | < 50 nM
CCn1c(O)c(C=Nc2nc3ccc(C)cc3s2)c(=O)n(CC)c1=S [Compound 75] | < 50 nM
Cc1cnc(N=Cc2c(O)n(Cc3ccccc3)c(=S)n(Cc3ccccc3)c2=O)s1 [Compound 118] | < 50 nM
CCn1c(O)c(C=Nc2nc3ccc(Cl)cc3s2)c(=O)n(CC)c1=S [Compound 74] | < 100 nM
CCn1c(O)c(C=Nc2nc3ccccc3[nH]2)c(=O)n(CC)c1=S [Compound 58] | < 50 nM
CCn1c(O)c(C=Nc2nnc(C(F)(F)F)s2)c(=O)n(CC)c1=S [Compound 104] | < 100 nM
CCn1c(O)c(C=Nc2nc3ccc([N+](=O)[O-])cc3s2)c(=O)n(CC)c1=S [Compound 79] | < 100 nM

Same assay, conditions: read-out: inhibitory binding affinity constant (Ki)

Molecule | Ki
O=c1oc2ccc(Cl)cc2c(O)c1C=NC(=S)Nc1ccccc1-c1ccccc1 [Compound 20] | < 50 nM
O=c1oc2ccc(Cl)cc2c(O)c1C=NC(=S)Nc1ccc(Cl)c(Cl)c1 [Compound 2] | < 50 nM
O=c1oc2ccc(Cl)cc2c(O)c1C=NC(=S)Nc1ccc(C2CCCCC2)cc1 [Compound 10] | < 50 nM
O=c1oc2ccc(Cl)cc2c(O)c1C=NC(=S)Nc1ccc(C(F)(F)F)cc1 [Compound 6] | < 50 nM
O=c1oc2ccc(Cl)cc2c(O)c1C=NC(=S)Nc1ccc(-c2ccccc2)cc1 [Compound 19] | < 50 nM
O=c1oc2ccc(Cl)cc2c(O)c1C=Nc1nc2c(Cl)cccc2s1 [Compound 36] | < 50 nM
O=c1oc2c(Cl)cccc2c(O)c1C=NC(=S)Nc1ccc(Cl)cc1 [Compound 31] | < 50 nM
O=c1oc2cc(Cl)ccc2c(O)c1C=Nc1nc2ccc(Cl)cc2s1 [Compound 45] | < 50 nM
O=c1oc2cc(Cl)ccc2c(O)c1C=Nc1nc2c(Cl)cccc2s1 [Compound 44] | < 50 nM
COc1cccc2sc(N=Cc3c(O)c4cc(Cl)ccc4oc3=O)nc12 [Compound 40] | < 100 nM
O=c1oc2ccc(Cl)cc2c(O)c1C=NC(=S)Nc1ccc(Cl)cc1 [Compound 1, 3-(p-chlorophenyl)thioureidomethylene-4-oxo-6-chloro-coumarin] | < 50 nM
O=c1oc2ccc3ccccc3c2c(O)c1C=NC(=S)Nc1ccc(Cl)cc1 [Compound 29] | < 100 nM
CCn1c(=O)c(C=Nc2nc3ccccc3[nH]2)c(O)n(CCc2ccccc2)c1=S [Compound 58-1] | < 100 nM
O=c1oc2c(Cl)cc(Cl)cc2c(O)c1C=NC(=S)Nc1ccc(Cl)cc1 [Compound 32] | < 50 nM
O=c1oc2ccc(Cl)cc2c(O)c1C=NC(=S)Nc1c(Cl)cc(Cl)cc1Cl [Compound 7] | < 50 nM
